Experimental data as given in ChEMBL document CHEMBL1148925, “Chaetoglobosins Q, R, and T, three further new metabolites from Chaetomium globosum” (J Nat Prod, 2004).
In brackets after ≈: the same amount, converted by molar mass.

Experiments:
Amorphotheca resinae = assay: Antifungal activity against Cladosporium resinae at 15 ug/disk; type: functional; settings: read-out: IZ
P388 = assay: Cytotoxicity against mouse P388 cells; type: functional, cell-based
Bacillus subtilis = assay: Antibacterial activity against Bacillus subtilis at 15 ug/disk; type: functional; settings: read-out: IZ
HeLa = assay: Cytotoxicity against human HeLa cells; type: functional, cell-based
[1] = tested on: Trichophyton mentagrophytes; assay: Antifungal activity against Trichophyton mentagrophytes at 30 ug/disk; type: functional; settings: read-out: IZ

C/C1=C\[C@@H](C)C/C=C/[C@H]2[C@@H]3O[C@]3(C)[C@@H](C)[C@H]3[C@H](Cc4c[nH]c5ccccc45)NC(=O)[C@]32C(=O)/C=C/C(=O)[C@@H]1O [CHAETOGLOBOSIN A]
zone of inhibition at 15 µg/disc (Amorphotheca resinae): 5 mm | IC50 (P388): 1.94 µg/mL (≈ 3.67 µM) | zone of inhibition at 15 µg/disc (Bacillus subtilis): 3 mm | IC50 (HeLa): 3.2 µg/mL (≈ 6.05 µM)

C/C1=C\[C@@H](C)C/C=C/[C@H]2[C@@H]3O[C@]3(C)[C@@H](C)[C@H]3[C@H](Cc4c[nH]c5ccccc45)NC(=O)[C@]32C(=O)CCC(=O)C1=O [CHAETOGLOBOSIN C]
IC50 (HeLa): 3.2 µg/mL (≈ 6.05 µM)

CC1=C(C)[C@H]2[C@H](Cc3c[nH]c4ccccc34)NC(=O)[C@]23C(=O)CC[C@H](O)C(=O)/C(C)=C/[C@@H](C)C/C=C/[C@H]3[C@@H]1O [CHAETOGLOBOSIN E]
IC50 (HeLa): 3.2 µg/mL (≈ 6.03 µM)

C/C1=C\[C@@H](C)C/C=C/[C@H]2[C@@H]3O[C@]3(C)[C@@H](C)[C@H]3[C@H](Cc4c[nH]c5ccccc45)NC(=O)[C@]32C(=O)CC[C@H](O)C1=O [CHAETOGLOBOSIN F]
IC50 (HeLa): 3.2 µg/mL (≈ 6.03 µM)

C/C1=C\[C@@H](C)C/C=C/[C@H]2[C@H](O)[C@](C)(O)[C@@H](C)[C@H]3[C@H](Cc4c[nH]c5ccccc45)NC(=O)[C@]32C(=O)/C=C/C(=O)[C@@H]1O [CHAETOGLOBOSIN Q]
IC50 (P388): 2.19 µg/mL (≈ 4.01 µM)

CC1=C(C)[C@H]2[C@H](Cc3c[nH]c4ccccc34)NC(=O)[C@]23C(=O)/C=C/C(=O)[C@H](O)/C(C)=C/[C@@H](C)C/C=C/[C@H]3[C@@H]1O [CHEATOGLOBOSIN B]
IC50 (P388): 3.45 µg/mL (≈ 6.53 µM) | zone of inhibition at 15 µg/disc (Bacillus subtilis): 1 mm | IC50 (HeLa): 3.2 µg/mL (≈ 6.05 µM)

C=C1[C@@H](C)[C@H]2[C@H](Cc3c[nH]c4ccccc34)NC(=O)[C@]23C(=O)/C=C/C(=O)[C@H](O)/C(C)=C/[C@@H](C)C/C=C/[C@H]3[C@@H]1O [CHEATOGLOBOSIN D]
IC50 (P388): 4.92 µg/mL (≈ 9.31 µM) | zone of inhibition at 15 µg/disc (Bacillus subtilis): 3 mm | IC50 (HeLa): 3.2 µg/mL (≈ 6.05 µM)

CC1=C(C)[C@H]2[C@H](Cc3c[nH]c4ccccc34)NC(=O)[C@]23C(=O)CCC(=O)C(=O)/C(C)=C/[C@@H](C)C/C=C/[C@H]3[C@@H]1O [CHEATOGLOBOSIN G]
IC50 (HeLa): 3.2 µg/mL (≈ 6.05 µM)

CC1=C[C@@H]2/C=C/C[C@H](C)/C=C(\C)[C@@H](O)C(=O)/C=C/C(=O)[C@]23C(=O)N[C@@H](Cc2c[nH]c4ccccc24)[C@@H]3[C@@H]1C [CHEATOGLOBOSIN J]
IC50 (P388): 2.47 µg/mL (≈ 4.82 µM) | zone of inhibition at 15 µg/disc (Bacillus subtilis): 2 mm | IC50 (HeLa): 3.2 µg/mL (≈ 6.24 µM)

CC1=C[C@@H]2/C=C/C[C@H](C)/C=C(\C)[C@@H](O)C/C=C/C(=O)[C@]23C(=O)N[C@@H](Cc2c[nH]c4ccccc24)[C@@H]3[C@@H]1C [CHEATOGLOBOSIN T]
IC50 (P388): 1.58 µg/mL (≈ 3.17 µM)

CC1=C[C@@H]2/C=C/C[C@H](C)/C=C(\C)CC(=O)/C=C/C(=O)[C@]23C(=O)N[C@@H](Cc2c[nH]c4ccccc24)[C@@H]3[C@@H]1C [PROCHEATOGLOBOSIN II]
IC50 (P388): 3.99 µg/mL (≈ 8.03 µM) | zone of inhibition at 30 µg/disc [1]: 2 mm

CC1=C[C@@H]2/C=C/C[C@H](C)/C=C(\C)CC/C=C/C(=O)[C@]23C(=O)N[C@@H](Cc2c[nH]c4ccccc24)[C@@H]3[C@@H]1C [PROCHEATOGLOBOSIN I]
IC50 (P388): 3.99 µg/mL (≈ 8.27 µM) | zone of inhibition at 30 µg/disc [1]: 2 mm
